The source of these data is paper PMC11947619, “Molecular mechanism of Mad2 conformational conversion promoted by the Mad2‐interaction motif of Cdc20” (Protein Science : A Publication of the Protein Society, 2025).

Residues, ends and D or L forms follow the SMILES beside them.

The test concerns the target T1, O‐Mad2^R133A (Homo sapiens, UniProt Q13257, R133A).
T1 construct: unable to collect equivalent data for full‐length O‐Mad2^R133A; His6-DoubleStrep-TEV (N); made in house
Kind of test: Time-resolved NMR: O-Mad2 to C-Mad2 conversion of O-Mad2^R133A with MIM peptides. In kind it is biochemical. To be noted: 100 μM O-Mad2^R133A, 25°C. As for the experimental part:
FIGURE 2 NMR fingerprinting of Mad2. (a) Structural orientations of Trp75 (on the αB helix) and Trp167 (on the “safety‐belt”) in Mad2 produce distinct indole NH resonances. […] NMR spectra for O‐Mad2^R133A and “empty” C‐Mad2^L13A/R133A and C‐Mad2^R133A:Cdc20^MIM‐111‐138 are from Fischer et al. ([2022]) (c) Mad2 conversion rates vary with different MIM peptides. Conversion was traced over 24 h at 25°C using the Trp75 and Trp167 side‐chain resonances as reporters. MIM peptides were added at two‐fold molar excess to Mad2 (100 μM). Each spectrum required 12 min of acquisition time, therefore the 15 min time‐points represent the earliest spectra in the time‐resolved series. The schematics show the conformation of Mad2 as indicated by the tryptophan side‐chain resonances. A black tick marks when conversion is considered complete. NMR data for O‐Mad2^R133A with and without Cdc20^MIM‐111‐138 shown are from Fischer et al. ([2022]). In the case of full‐length Cdc20, the MIM sequence is sequestered by an auto‐inhibitory intramolecular interaction within Cdc20 itself, which prevents it from being readily accessible for binding to C‐Mad2 (Piano et al., [2021]). Conversely, isolated MIM peptides lack this auto‐inhibitory mechanism, allowing them to bind directly to C‐Mad2 without obstruction.
To understand whether Mad2 conversion times are modulated by different C‐Mad2 ligands, we used time‐resolved NMR to determine the conversion time of 100 μM O‐Mad2^R133A at 25°C. The indole NH resonances of Trp75 and Trp167 were used as reporters (Figure 2b). […] In contrast, conversion took ~24 h in the absence of Cdc20^MIM‐111‐138 peptide (Fischer et al., [2022]) (Figures 2c and S4b). […] Other MIM peptides also accelerated the O‐Mad2 to C‐Mad2 conversion. […] In “empty” C‐Mad2, the β7/β8 hairpin is displaced to expose the β6 strand for pairing with the MIM peptide (Luo et al., [2004]) (Figure S3a).
Mad2 constructs were expressed in BL21 Star (DE3) cells (Thermo Fisher Scientific), co‐transformed with a pRARE plasmid (Merck). Uniformly labeled proteins were expressed in M9 minimal media (6 g/L Na2HPO4, 3 g/L KH2PO4, 0.5 g/L NaCl) supplemented with 1.7 g/L yeast nitrogen base without NH4Cl and amino acids (Sigma Y1251). 1 g/L ^15NH4Cl and 4 g/L glucose were supplemented for ^15N labeling. For ^13C/^15N double‐labeled samples, unlabeled glucose was replaced with 3 g/L ^13C‐glucose. Protein expression was induced with 0.4 mM IPTG at 16°C overnight. All samples were purified as previously described (Luo & Yu, [2005]; Mapelli et al., [2007]) and all O‐Mad2 variants were kept at 4°C during purification to prevent conversion to C‐Mad2. Prior to all NMR experiments, proteins were dialyzed into 20 mM HEPES, pH 7.0, 100 mM NaCl, 1 mM TCEP. ^13C/^15N‐labeled samples were used for backbone assignment, and all other experimental data were acquired on ^15N‐labeled samples. Proteins were kept on ice before NMR experiments to ensure all O‐Mad2 remained in the open state. For “bound” C‐Mad2, MIM peptides were added in 1:2 molar excess to ensure complete conversion.
All peptides were synthesized by Cambridge Research Biochemicals, UK. Peptides were dialyzed into 20 mM HEPES, pH 7.0, 100 mM NaCl, and 1 mM TCEP for NMR experiments. The sequences for the peptides used in this study are: Cdc20^MIM‐111‐138 ([…]), Cdc20^MIM‐123‐137 (FDVEEAKILRLSGKP), Cdc20^MIM‐123‐152 ([…]), Cdc20^MIM‐138‐152 (QNAPEGYQNRLKVLY), Mad1^MIM‐529‐550 ([…]), and MBP1^MIM (SWYSYPPPQRAV). […]

T1 sequence (Q13257 whole entry R133A): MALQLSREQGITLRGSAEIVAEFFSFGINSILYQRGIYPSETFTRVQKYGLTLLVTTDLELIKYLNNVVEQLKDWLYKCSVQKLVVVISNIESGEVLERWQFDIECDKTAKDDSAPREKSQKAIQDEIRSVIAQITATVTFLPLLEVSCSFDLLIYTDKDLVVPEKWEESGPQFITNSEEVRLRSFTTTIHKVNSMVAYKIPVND

As for `CC[C@H](C)[C@H](NC(=O)[C@H](CCCCN)NC(=O)[C@H](C)NC(=O)[C@H](CCC(=O)O)NC(=O)[C@H](CCC(=O)O)NC(=O)[C@@H](NC(=O)[C@H](CC(=O)O)NC(=O)[C@@H](N)Cc1ccccc1)C(C)C)C(=O)N[C@@H](CC(C)C)C(=O)N[C@@H](CCCNC(=N)N)C(=O)N[C@@H](CC(C)C)C(=O)N[C@@H](CO)C(=O)NCC(=O)N[C@@H](CCCCN)C(=O)N1CCC[C@H]1C(=O)N[C@@H](CCC(N)=O)C(=O)N[C@@H](CC(N)=O)C(=O)N[C@@H](C)C(=O)N1CCC[C@H]1C(=O)N[C@@H](CCC(=O)O)C(=O)NCC(=O)N[C@@H](Cc1ccc(O)cc1)C(=O)N[C@@H](CCC(N)=O)C(=O)N[C@@H](CC(N)=O)C(=O)N[C@@H](CCCNC(=N)N)C(=O)N[C@@H](CC(C)C)C(=O)N[C@@H](CCCCN)C(=O)N[C@H](C(=O)N[C@@H](CC(C)C)C(=O)N[C@@H](Cc1ccc(O)cc1)C(=O)O)C(C)C` [Cdc20^MIM‐123‐152] (H-FDVEEAKILRLSGKPQNAPEGYQNRLKVLY-OH; N-terminus and C-terminus assumed), the “Mad2 conversion rate/efficiency, in words” value (time-resolved NMR, compared with other Cdc20^MIM peptides) was “more efficient at triggering Mad2 conversion”.
Regarding “EHQKAWALNLNGFDVEEAKILRLSGKPQ [Cdc20^MIM‐111‐138, Cdc20^MIM peptide spanning Cdc20 residues 111–138]”, the “acceleration of O-Mad2 to C-Mad2 conversion vs absence of MIM peptide” value (two-fold molar excess peptide, without peptide ~24 h) is around 50 fold.
“QNAPEGYQNRLKVLY [Cdc20^MIM‐138‐152, peptide of Cdc20 residues 138–152]”: the “induction of Mad2 conversion after two hours / binding, in words” value (time-resolved NMR, two hours) was “failed to induce Mad2 conversion after two hours, and therefore alone are insufficient to bind Mad2”.
